Source: patent US10912843B2, “Endoplasmic reticulum-targeting nanovehicles and methods for use thereof” (National Cheng Kung University, priority 2018, dated 2021)

Experiments:
[1] = tested on: differentiated HL-60 cells; experiment: Curcumin-induced extracellular calcium influx; assay type: cell-based
Description: Extracellular calcium influx, which is triggered by the depletion of ER calcium stores, was measured in cells treated with free curcumin or treated with curcumin-loaded nanoparticles as follows. Differentiated HL-60 cells were pretreated with free curcumin (10 μM), curcumin-loaded PLGA nanoparticles (0.5 μM), and curcumin-loaded ER-targeted PLGA nanoparticles (0.5 μM) at 37° C. overnight. Cells were washed with calcium-free HBSS, seeded on poly-lysine coated 8-well slides (ibidi, Planegg, Germany) at a density of 1×10^6 cells/ml, and incubated at 37° C. for 30 min. Cells were labeled with 2 μM of the calcium-sensitive fluorescent dye Fluo-4 AM and 1 μM of ER-tracker at 37° C. for 30 min. Labeled cells were treated with 1.25 mM CaCl2. Fluorescence images were captured by confocal microscopy every 10 s for 5 min. following the addition of CaCl2. Fluorescence intensities in these images were analyzed using ImageJ software. The change in fluorescence intensity over time divided by the baseline fluorescence intensity prior to calcium addition (ΔF/FO) was plotted versus time, and the rate of calcium level increase (ΔF/F/s) was derived from that plot. The overall calcium flux was calculated as the area under the curve (AUC) of a ΔF/F/s versus time curve.

[2] = tested on: H338Y-gp91^phox protein; experiment: Expression and maturation of H338Y-gp91^phox protein in neutrophils of treated transgenic mice (Western blot); assay type: in vivo, mouse; conditions: Cybb^C1024T transgenic Cybb^-/- mice, treated 24 hours, 20 mg/kg of curcumin
Description: The expression of H338Y-gp91^phox protein in neutrophils from the Cybb^C1024T transgenic Cybb^−/− mice was examined by SDS-PAGE and Western blotting with an anti-gp91^phox antibody. To isolate neutrophils, mice were injected intraperitoneally with 3 ml of 3% thioglycollate to elicit peritoneal neutrophils. Four hours later, the mice were sacrificed, and the peritoneal cavity was washed twice with 5 ml of Hanks buffered salt solution (HBSS) with 2 mM ethylene glycol tetraacetic acid to collect the elicited peritoneal neutrophils. Peritoneal neutrophils were then washed with PBS before use.
Curcumin-loaded PLGA nanoparticles with or without the ER-targeting KDEL peptide were tested for their effects on the expression and maturation of H338Y-gp91^phox protein in Cybb^C1024T transgenic Cybb^−/− mice. Briefly, mice were untreated or treated separately with free curcumin, curcumin-loaded PLGA nanoparticles, or curcumin-loaded ER-targeted PLGA nanoparticles for 24 hours in amounts corresponding to 20 mg/kg of curcumin. Neutrophils from the mice were elicited, isolated, and analyzed for expression of H338Y-gp91^phox protein as described above.
Statistical analyses were carried out with Prism software (GraphPad Software). […]

[3] = tested on: differentiated HL-60 cells; experiment: Curcumin-induced intracellular calcium release (Fluo-4AM); assay type: cell-based; conditions: 10 μM
Description: SERCA inhibitors such as curcumin cause an increase in intracellular calcium release from the ER. The ability of curcumin to induce calcium release was compared to that of PLGA nanoparticle-encapsulated curcumin. Differentiated HL-60 cells were seeded on 8-well slides in calcium-free medium and loaded with the intracellular calcium-sensitive indicator dye Fluo-4AM. Cells were treated with thapsigargin (positive control) or treated with 0.5, 1, or 10 μM curcumin, curcumin-loaded PLGA nanoparticles, or curcumin-loaded ER-targeted PLGA nanoparticles. Fluorescence intensity over time was measured in treated cells by confocal microscopy and analyzed using ImageJ software. The change in fluorescence intensity over time divided by the baseline fluorescence intensity prior to calcium addition (ΔF/FO) was plotted versus time.

[4] = tested on: differentiated HL-60 cells; experiment: Mitochondrial membrane potential (TMRM, flow cytometry); assay type: cell-based; conditions: 10 μM, 24 hours; FIG. 5A
Description: As mentioned above, it has been shown that curcumin is cytotoxic, as it induces ER stress and apoptosis. The cytotoxicity of free curcumin was compared to that of encapsulated curcumin by measuring in treated cells mitochondrial membrane potential (one measure of cytotoxicity), apoptotic markers, and ER stress-related protein expression.
(§1) Differentiated HL-60 cells were treated with 0.5 μM or 10 μM free curcumin, curcumin-loaded PLGA nanoparticles, or curcumin-loaded ER-targeted PLGA nanoparticles for 24 hours. Treated cells were labeled with 250 nM of the mitochondrial membrane potential indicator dye tetramethylrhodamine (TMRM) at 37° C. for 30 min. TMRM-labeled cells were analyzed by flow cytometry and their mitochondrial membrane potentials quantified using the Flowing Software 2 software package.

[5] = tested on: differentiated HL-60 cells; experiment: Detection of apoptotic cells (Annexin V / 7-AAD); assay type: cell-based; conditions: 10 μM, 24 hours; FIG. 5B
Description: as §1
Cells treated as above with free or encapsulated curcumin were washed with ice-cold phosphate-buffered saline and stained with phycoerythrin-Annexin V and 7 amino-actinomycin D (7-AAD) at room temperature for 15 min. Annexin V binds to the surface of cells undergoing apoptosis, and 7-AAD only enters and stains apoptotic cells. Stained cells were subjected to flow cytometry analysis and the results analyzed using the Flowing Software 2 analysis package.

[6] = tested on: differentiated HL-60 cells; experiment: ER stress response and caspase-3 cleavage (Western blot); assay type: cell-based; conditions: 10 μM
Description: To determine whether the activation of the ER stress response is involved in curcumin-induced apoptosis, the levels of ER stress markers Bip and phosphorylated ERK, as well as the level of cleaved Caspase-3, a marker of apoptosis, were quantified by Western blot analysis of cells treated with 10 μM curcumin or encapsulated curcumin.
Briefly, treated cells were lysed in 100 μl of lysis buffer (1% Triton-X100, 150 mM NaCl, 10 mM Tris base, 1 mM EDTA, 1 mM EGTA, 50×protease inhibitor cocktail, pH 7.4). Lysed samples were subjected to 10% SDS-PAGE and transferred to membranes for Western Blot analysis using antibodies that bind to Bip, phospho-ERK, total ERK, cleaved caspase-3, and β-actin. Binding of these antibodies was visualized using commercially available enhanced chemiluminescence reagents. Chemiluminescent signals were quantified from images using ImageJ software.

[7] = tested on: human peripheral blood hematopoietic cells (HSCs); experiment: Erythroblast differentiation (CD71 / CD235a flow cytometry); assay type: cell-based; conditions: FIG. 6A
Description: Erythroblast differentiation was measured in human peripheral blood hematopoietic cells (HSCs) treated with free curcumin or treated with curcumin-loaded nanoparticles as follows. Human CD34^+ HSCs were cultured in Iscove's modified Dulbecco medium containing 15% heat-inactivated fetal calf serum, 2 U/ml of recombinant human erythropoietin, 20 ng/ml of stem cell factor, and 10 ng/ml of interleukin-3 (IL-3). On day 4, the medium was replaced with fresh medium without IL-3 and the HSCs were cultured for another 5 days. The maturation of erythroblasts was analyzed by detecting the surface expression of CD71 and CD235a with flow cytometry.

Row | SMILES | time to calcium influx after addition ([1]; positive control, 1.25 mM extracellular calcium) | expression of glycosylated H338Y-gp91^phox as compared to untreated mice [2] | rate of intracellular calcium increase, compared with lower concentrations of free curcumin [3] | level of calcium release, compared with 0.5 μM and 1 μM free curcumin ([3]; calcium-free medium, 40, 50 and 60 s after treatment) | calcium influx rate 20 s after treatment, compared with 0.5 μM curcumin-loaded nanoparticles ([1]; 10 μM) | mitochondrial membrane potential compared with control untreated cells [4] | number of apoptotic cells (Annexin V binding) [5] | ERK phosphorylation compared with untreated control cells ([6]; FIG. 5C center panel) | Bip expression compared with untreated control cells ([6]; FIG. 5C left panel) | percentages of more mature CD71^low CD235^high cells in treated HSCs [7]
1 | C/C=C(/C)C(=O)O[C@H]1C(C)=C2[C@H]([C@@H]1OC(=O)CCCCCCC)[C@@](C)(OC(C)=O)C[C@H](OC(=O)CCC)[C@@]1(O)[C@H]2OC(=O)[C@@]1(C)O [Thapsigargin, thapsigargin] | ≤ 10 s | – | – | – | – | – | – | – | – | –
2 | COc1cc(/C=C/C(=O)CC(=O)/C=C/c2ccc(O)c(OC)c2)ccc1O [free curcumin, curcumin] | – | did not show any change | highest | significantly higher | significantly higher | significant reduction | significant increase | increased | increased | significantly enhanced
